Reference: PubChem BioAssay (NCI)
“And” between values parts separate entries of the source, which are not always exact repeats. Identical values can stand only once.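 Growth conditions: 96-well plates. Treatment: test compound, 48 hours, 5 concentrations. Analysis: linear interpolation between bracketing concentrations; unreached endpoints set to highest concentration. Here, GI50 denotes the concentration required for 50% inhibition of growth. TGI: concentration producing complete growth inhibition.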

How the values were obtained:
Assay in all cases: NCI-60 cell line screen, 48 h
MOLT-4 leukemia = system: MOLT-4 leukemia
T-47D breast = system: T-47D breast
SF-268 CNS = system: SF-268 CNS
LOX IMVI melanoma = system: LOX IMVI melanoma
SK-MEL-5 melanoma = system: SK-MEL-5 melanoma
UACC-62 melanoma = system: UACC-62 melanoma
UACC-257 melanoma = system: UACC-257 melanoma
M19-MEL melanoma = system: M19-MEL melanoma
DMS 273 small cell lung = system: DMS 273 small cell lung
LXFL 529 NSCLC = system: LXFL 529 NSCLC

Row | Compound | GI50 (MOLT-4 leukemia) [µM] | TGI (MOLT-4 leukemia) | GI50 (T-47D breast) | TGI (T-47D breast) | GI50 (SF-268 CNS) | TGI (SF-268 CNS) | GI50 (LOX IMVI melanoma) | TGI (LOX IMVI melanoma) | GI50 (SK-MEL-5 melanoma) | TGI (SK-MEL-5 melanoma) | GI50 (UACC-62 melanoma) | TGI (UACC-62 melanoma) | GI50 (UACC-257 melanoma) | TGI (UACC-257 melanoma) | TGI (M19-MEL melanoma) | TGI (DMS 273 small cell lung) | TGI (LXFL 529 NSCLC)
1 | O=C(Nc1cccc(NS(=O)(=O)c2ccc(F)cc2)c1)c1ccc(-c2ccccc2)cc1 | 3.05 | 14.5 µM | 2.28 µM | 7.88 µM | 3.22 µM | 66.6 µM | 2.54 µM | 6.99 µM | 1.88 µM | 3.74 µM | 1.63 µM | 6.68 µM | 2.76 µM | 9.93 µM | – | – | –
2 | CCC12CCC(O)C1N(C)CCC2Sc1ccccc1 (configuration not stated) | – | > 100 µM | – | – | – | > 100 µM | – | > 100 µM | – | > 100 µM | – | > 100 µM | – | > 100 µM | > 100 µM | > 100 µM | –
3 | COCC1N=C(c2ccc(OC)c(OCc3ccccc3)c2OC)O[C@H]1c1ccccc1 (some centres not stated) | – | 23.3 µM | – | – | – | > 100 µM | – | 29.6 µM | – | 25.7 µM | – | 51.5 µM | – | – | 53.8 µM | 38.6 µM | 65 µM
4 | O=NN(CCCl)C(=O)NCc1ccc[n+]([O-])c1 | – | > 100 µM | – | – | – | > 100 µM | – | > 100 µM | – | > 100 µM | – | > 100 µM | – | > 100 µM | > 100 µM | – | > 100 µM
5 | O=C1c2cccnc2-c2nc(-c3ccccn3)cc3c2c1nc1ccccc13 | 0.211 | 4.09 µM | 0.601 µM | 11.9 µM | 0.449 µM | 2.5 µM | 0.287 µM | 1.52 µM | 0.265 µM | 1.65 µM | 0.191 µM | 0.63 µM | 0.533 µM | 1.97 µM | – | – | –
6 | O=c1oc2ccccc2cc1-c1ccc([N+](=O)[O-])cc1 | – | > 100 µM | – | > 100 µM | – | > 100 µM | – | > 100 µM | – | > 100 µM | – | > 100 µM | – | > 100 µM | – | – | –
7 | CC1=C2C(=CC(C)(CO)C2O)C(=O)C(C)(O)C12CC2 (configuration not stated) | – | 0.0104 µM | – | – | – | 0.0159 µM | – | 0.00992 µM | – | 0.0036 µM | – | 0.00784 µM | – | 0.00867 µM | 0.0116 µM | 0.00892 µM | 0.0292 µM
8 | COC(=O)[C@H](C)[C@H]1CC[C@@](C)([C@H]2CC3C(C)(C)[C@H]4CCC(C)=C[C@H]4C[C@@]3(C)O2)OO1 (some centres not stated) | – | 25.3 µM | – | – | – | 25.9 µM | – | 3.5 µM | – | 17.8 µM | – | 35.6 µM | – | 27.5 µM | 28.8 µM | 26.1 µM | 7.79 µM
9 | CC(C)SC1SCC2C(=O)N(C)C3(CC3C)C(=O)OCC(NC(=O)c3nc4ccccc4cc3O)C(=O)NC(C)C(=O)N(C)C1C(=O)N(C)C1(CC1C)C(=O)OCC(NC(=O)c1nc3ccccc3cc1O)C(=O)NC(C)C(=O)N2C (configuration not stated) | – | < 0.0001 µM | – | > 100 µM | – | 0.00129 µM | – | < 0.0001 µM | – | < 0.0001 µM | – | < 0.0001 µM | – | < 0.0001 µM | – | – | –
10 | Cc1ccc2c(/C=C/C(=O)c3cc(CN4CCOCC4)c(O)c4nc(C)ccc34)cc(CN3CCOCC3)c(O)c2n1 | 0.386 | 2.66 µM | 0.779 µM | 14 µM | 0.81 µM | 8.66 µM | 0.454 µM | 1.79 µM | 0.581 µM | 2.32 µM | 0.432 µM | 7.48 µM | 2.62 µM | 13.6 µM | – | – | –
11 | O=C(O)CSCC(=O)c1ccccc1 | – | > 100 µM | – | > 100 µM | – | > 100 µM | – | > 100 µM | – | > 100 µM | – | > 100 µM | – | > 100 µM | – | – | –
12 | O=C(Oc1cccc(Nc2ncnc3ccccc23)c1)c1ccccc1Cl | > 100 | > 100 µM | 29.2 µM | > 100 µM | 20.8 µM | 67 µM | 15.8 µM | 36.2 µM | 14.6 µM | 28.2 µM | 22.5 µM | 80.6 µM | 26.6 µM | 57.1 µM | – | – | –
13 | CC(C)(C)[Si](C)(C)OC1[C@@H](O[Si](C)(C)C(C)(C)C)[C@@H](CNC(=O)NC(=O)NC(=O)CI)O[C@H]1n1cnc2c(NC(=O)Nc3ccccc3)ncnc21 (some centres not stated) | 0.718 | 3.12 µM | 9.63 µM | 28 µM | 1.5 µM | 7.04 µM | 0.0864 µM | 0.155 µM | 8.73 µM | 16.3 µM | 8.63 µM | 22.6 µM | 7.42 µM | 16.7 µM | – | – | –
14 | NC(=O)c1csc(C2O[C@@H](COP(=O)(O)OP(=O)(O)OC[C@H]3OC(n4cnc5c(N)ncnc54)[C@H](O)[C@@H]3O)[C@H](O)[C@@H]2O)n1 (some centres not stated) | – | > 100 µM | – | – | – | > 100 µM | – | > 100 µM | – | > 100 µM | – | > 100 µM | – | > 100 µM | – | > 100 µM | > 100 µM
15 | O=C(Nc1ccccc1)O/N=C1/CCCC/C1=C\c1ccccc1 | – | 26.5 µM | – | – | – | 32.8 µM | – | 34 µM | – | 25.6 µM | – | 30 µM | – | 35.1 µM | 34 µM | 31.2 µM | 21.4 µM
16 | COc1cccc(/C=C\c2cc(OC)c(OC)c(OC)c2)c1 | – | 18 µM | – | – | – | > 100 µM | – | – | – | – | – | > 100 µM | – | 47.3 µM | > 100 µM | 39.6 µM | > 100 µM
17 | COc1cc2c3c(n(CCCO)c(=O)c2cc1OC)-c1cc2c(cc1C3=O)OCO2 | 0.841 | 6.7 µM | 14.2 µM | > 100 µM | 9.04 µM | > 100 µM | 2.89 µM | 22.9 µM | 11.3 µM | > 52.9 µM | 2.45 µM | 25.3 µM | 64.7 µM | > 100 µM | – | – | –
18 | Cc1c2cc[n+](C)cc2c(C)c2c1[nH]c1ccc(OC(C)C)cc12 | – | 20.4 µM and 17.1 µM | – | – | – | 1.88 µM and 2.82 µM | – | 21.4 µM and 26.2 µM | – | 3.32 µM and 4.01 µM | – | 8.04 µM and 12.7 µM | – | 8.06 µM and 11.7 µM | 6.14 µM and 7.31 µM | 10.9 µM and 12.5 µM | 5.04 µM and 11.3 µM
19 | C=C(CN1CCc2ccccc2C1)c1ccc(/C=C/C(=O)Nc2ccccc2N)cc1 | 3.18 | > 100 µM | 10.5 µM | > 100 µM | 2.44 µM | 55.3 µM | 3.09 µM | 16.5 µM | 13 µM | 31.4 µM | 4.99 µM | 22.8 µM | 1.3 µM | 28 µM | – | – | –
20 | CC1/C=C/C=C/CC/C=C/C=C/C=C/C=C/C(OC2OC(C)C(O)C(N)C2O)CC2OC(CC(O)C(O)CCC(O)CC(O)CC(O)CC(=O)OC(C)C(C)C1O)CC(O)C2C(=O)O (configuration not stated) | – | 38.2 µM | 59.8 µg/mL | > 100 µM and 150 µg/mL | 33.9 µg/mL | 56.9 µM and 70.7 µg/mL | 24.1 µg/mL | 33.1 µM and 47.9 µg/mL | 47.3 µg/mL | 58.9 µM and 150 µg/mL | 28.8 µg/mL | 38 µM and 55.8 µg/mL | 28.9 µg/mL | 32.7 µM and 53.8 µg/mL | – | – | –
